Experimental data as given in patent US20240307362A1 (priority 2019, published 2024).
Read-outs that look alike come from different tables or passages of the source.

Legend:
[1] = tested on: Ba/F3-EGFR-insSVD; assay: Ba/F3 cell survival assay, EGFR-insSVD; assay type: cell-based
Method: (§1) 293T cells from ATCC were transfected with pBABEpuro expression constructs for WT EGFR or EGFR-insSVD and pCL-Eco packaging vector using Fugene-6 transfection reagent from Promega. Plates were incubated at 37° C. for 48 h. Retrovirus was harvested by filtering the media supernatant through a 0.45 μm filter.
(§2) Ba/F3 cells purchased from DSMZ were grown in RPMI+10% FBS+10 ng/mL IL-3 and infected with filtered retroviral supernatant at a 1:2 dilution. Polybrene was added to a concentration of 8 μg/mL, plates were spun for 90 min, and incubated overnight at 37° C. 2 μg/mL puromycin was added to the infected cells 24 h after infection and cells were continually grown in the presence of puromycin and 10 ng/mL IL-3. Following stably expressing Ba/F3 cell lines were generated: Ba/F3-EGFR-WT, Ba/F3-EGFR-insSVD, (Ba/F3-vector-control).
For cell survival assays, Ba/F3 cells were grown to a density of 1-2 million cells per mL, spun down and resuspended in media without IL-3, and replated at a concentration 200,000-500,000 cells per mL. The cells ectopically expressing WT EGFR or EGFR-insSVD were plated with 10 ng/mL Millipore Culture grade EGF. The cells ectopically expressing pBABEpuro empty vector were plated with 10 ng/mL IL-3.
2 days later, cells were plated in 50 μL in a 384 well plate at a concentration of 4000 cells per well for cells assayed in the absence of IL-3 and 2000 cells per well for cells assayed in the presence of IL-3. 100 nL of compound was added to each well using a 100 nL pin head, and plates were incubated at 37° C. for 48 h.
Cell viability was measured by adding 20 μL of Cell Titer-Glo Luminescent Cell Viability Reagent diluted 1:3 in PBS. Plates were sealed with Perkin Elmer Top-Seal, inverted several times to mix, and immediately centrifuged at 1000 rpm for 2 min. Plates were incubated in low light conditions for 8-10 min and luminescence was measured.

[2] = target: human Bub1 (Homo sapiens (Human), UniProt O43683); assay: Bub1 high ATP kinase assay (TR-FRET); assay type: biochemical
Text: Bub1-inhibitory activity of compounds of the present invention at a high ATP concentration was quantified employing the Bub1 TR-FRET high ATP kinase assay as described in the following paragraphs.
N-terminally His6-tagged recombinant catalytic domain of human Bub1 (amino acids 704-1085), expressed in insect cells (Hi5) and purified by Ni-NTA affinity chromatography and subsequent size exclusion chromatography, was used as enzyme.

[3] = tested on: Ba/F3-EGFR-WT; assay: Ba/F3 cell survival assay, WT EGFR; assay type: cell-based
Method: as §1, §2
The cells ectopically expressing WT EGFR or EGFR-insSVD were plated with 10 ng/mL Millipore Culture grade EGF. The cells ectopically expressing pBABEpuro empty vector were plated with 10 ng/mL IL-3.
100 nL of compound was added to each well using a 100 nL pin head, and plates were incubated at 37° C. for 48 h.
Cell viability was measured by adding 20 μL of Cell Titer-Glo Luminescent Cell Viability Reagent diluted 1:3 in PBS. Plates were sealed with Perkin Elmer Top-Seal, inverted several times to mix, and immediately centrifuged at 1000 rpm for 2 min.

[4] = Mus musculus, BaF3, 48 h, read-out: BA/F3 (insSVD) IC50, cell viability, Cell Titer-Glo, 48 h, with 10 ng/mL EGF, without IL-3
[5] = read-out: Bub1 high ATP (2 mM) IC50, 2 mM ATP
[6] = Mus musculus, BaF3, 48 h, read-out: BA/F3 (wild type) IC50, cell viability, Cell Titer-Glo, 48 h, with 10 ng/mL EGF, without IL-3
[7] = read-out: BA/F3 (insSVD) IC50, cell viability, Cell Titer-Glo, 48 h, with 10 ng/mL EGF, without IL-3
[8] = Bub1 high ATP (2 mM) IC50, 2 mM ATP
[9] = read-out: BA/F3 (wild type) IC50, cell viability, Cell Titer-Glo, 48 h, with 10 ng/mL EGF, without IL-3

Sequence of human Bub1 (O43683 704-1085): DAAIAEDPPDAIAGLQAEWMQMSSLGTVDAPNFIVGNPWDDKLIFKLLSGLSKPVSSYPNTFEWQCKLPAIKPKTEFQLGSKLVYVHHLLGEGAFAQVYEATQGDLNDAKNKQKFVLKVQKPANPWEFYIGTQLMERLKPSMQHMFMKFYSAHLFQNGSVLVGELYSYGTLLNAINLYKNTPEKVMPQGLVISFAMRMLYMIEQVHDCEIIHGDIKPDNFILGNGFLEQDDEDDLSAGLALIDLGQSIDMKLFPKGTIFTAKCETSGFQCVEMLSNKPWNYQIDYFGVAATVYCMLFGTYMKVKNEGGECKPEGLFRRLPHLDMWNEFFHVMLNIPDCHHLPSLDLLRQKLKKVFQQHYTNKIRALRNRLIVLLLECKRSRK

COc1c(Cl)cccc1Nc1c(-c2ccncc2OCC2(C)CCO2)[nH]c2c1C(=O)NCC2 (racemic) [Example 46, 3-(3-chloro-2-methoxyanilino)-2-{3-[(2-methyloxetan-2-yl)methoxy]pyridin-4-yl}-1,5,6,7-tetrahydro-4H-pyrrolo[3,2-c]pyridin-4-one]
IC50 [1, 4]: 67 nM | IC50 [2, 5]: 10200 nM | IC50 [3, 6]: 966 nM

COc1c(Cl)cccc1Nc1c(-c2ccncc2OCC2OCC2(C)C)[nH]c2c1C(=O)NCC2 (racemic) [Example 49, 3-(3-chloro-2-methoxyanilino)-2-{3-[(3,3-dimethyloxetan-2-yl)methoxy]pyridin-4-yl}-1,5,6,7-tetrahydro-4H-pyrrolo[3,2-c]pyridin-4-one]
IC50 [1, 4]: 12.5 nM | IC50 [2, 5]: > 20000 nM | IC50 [3, 6]: 426 nM

COc1c(F)cccc1Nc1c(-c2ccncc2OCC2OCC2(C)C)[nH]c2c1C(=O)NCC2 (racemic) [Example 52, 2-{3-[(3,3-dimethyloxetan-2-yl)methoxy]pyridin-4-yl}-3-(3-fluoro-2-methoxyanilino)-1,5,6,7-tetrahydro-4H-pyrrolo[3,2-c]pyridin-4-one]
IC50 [1, 4]: 38.1 nM | IC50 [2, 5]: > 20000 nM | IC50 [3, 6]: 535 nM

Cc1cccc(Nc2c(-c3ccncc3OCC3OCC3(C)C)[nH]c3c2C(=O)NCC3)c1Cl (racemic) [Example 58, 3-(2-chloro-3-methylanilino)-2-{3-[(3,3-dimethyloxetan-2-yl)methoxy]pyridin-4-yl}-1,5,6,7-tetrahydro-4H-pyrrolo[3,2-c]pyridin-4-one]
IC50 [1, 4]: 106 nM | IC50 [2, 5]: > 20000 nM | IC50 [3, 6]: 1430 nM

COc1c(Cl)cc(F)cc1Nc1c(-c2ccncc2OCC2CCO2)[nH]c2c1C(=O)NCC2 (racemic) [Example 65, 3-(3-chloro-5-fluoro-2-methoxyanilino)-2-(3-{[oxetan-2-yl]methoxy}pyridin-4-yl)-1,5,6,7-tetrahydro-4H-pyrrolo[3,2-c]pyridin-4-one]
IC50 [1, 4]: 89.8 nM | IC50 [2, 5]: > 20000 nM | IC50 [3, 6]: 911 nM

CC1(COc2cnccc2-c2[nH]c3c(c2Nc2cccc(Cl)c2OC(F)F)C(=O)NCC3)CCO1 (racemic) [Example 74, 3-[3-chloro-2-(difluoromethoxy)anilino]-2-(3-{[2-methyloxetan-2-yl]methoxy}pyridin-4-yl)-1,5,6,7-tetrahydro-4H-pyrrolo[3,2-c]pyridin-4-one]
IC50 [1, 4]: 134 nM | IC50 [2, 5]: > 20000 nM | IC50 [3, 6]: 1250 nM

COc1c(Br)cccc1Nc1c(-c2ccncc2OCC2CCO2)[nH]c2c1C(=O)NCC2 (single isomer, unassigned) [Example 34, 3-(3-bromo-2-methoxyanilino)-2-{3-[(oxetan-2-yl)methoxy]pyridin-4-yl}-1,5,6,7-tetrahydro-4H-pyrrolo[3,2-c]pyridin-4-one]
IC50 [1, 7]: 20.4 nM | IC50 [2, 8]: > 20000 nM | IC50 [3, 9]: 519 nM

COc1c(Br)cccc1Nc1c(-c2ccncc2OCC2CCO2)[nH]c2c1C(=O)NCC2 (single isomer, unassigned) [Example 35, 3-(3-bromo-2-methoxyanilino)-2-{3-[(oxetan-2-yl)methoxy]pyridin-4-yl}-1,5,6,7-tetrahydro-4H-pyrrolo[3,2-c]pyridin-4-one]
IC50 [1, 7]: 206 nM | IC50 [2, 8]: 4970 nM | IC50 [3, 9]: 1360 nM

Cc1c(Cl)cc(F)cc1Nc1c(-c2ccncc2OCC2CCO2)[nH]c2c1C(=O)NCC2 (single isomer, unassigned) [Example 41, 3-(3-chloro-5-fluoro-2-methylanilino)-2-{3-[(oxetan-2-yl)methoxy]pyridin-4-yl}-1,5,6,7-tetrahydro-4H-pyrrolo[3,2-c]pyridin-4-one]
IC50 [1, 7]: 346 nM | IC50 [2, 8]: 6350 nM | IC50 [3, 9]: 1780 nM

Cc1c(Cl)cc(F)cc1Nc1c(-c2ccncc2OCC2CCO2)[nH]c2c1C(=O)NCC2 (single isomer, unassigned) [Example 42, 3-(3-chloro-5-fluoro-2-methylanilino)-2-{3-[(oxetan-2-yl)methoxy]pyridin-4-yl}-1,5,6,7-tetrahydro-4H-pyrrolo[3,2-c]pyridin-4-one]
IC50 [1, 7]: 72.5 nM | IC50 [2, 8]: > 20000 nM | IC50 [3, 9]: 553 nM

COc1c(F)cccc1Nc1c(-c2ccncc2OCCC2CCO2)[nH]c2c1C(=O)NCC2 (single isomer, unassigned) [Example 44, 3-(3-fluoro-2-methoxyanilino)-2-{3-[2-(oxetan-2-yl)ethoxy]pyridin-4-yl}-1,5,6,7-tetrahydro-4H-pyrrolo[3,2-c]pyridin-4-one]
IC50 [1, 4]: 34.1 nM | IC50 [2, 8]: > 20000 nM | IC50 [3, 6]: 903 nM

COc1c(F)cccc1Nc1c(-c2ccncc2OCCC2CCO2)[nH]c2c1C(=O)NCC2 (single isomer, unassigned) [Example 45, 3-(3-fluoro-2-methoxyanilino)-2-{3-[2-(oxetan-2-yl)ethoxy]pyridin-4-yl}-1,5,6,7-tetrahydro-4H-pyrrolo[3,2-c]pyridin-4-one]
IC50 [1, 7]: 46.4 nM | IC50 [2, 8]: 12700 nM | IC50 [3, 9]: 746 nM

O=C1NCCc2[nH]c(-c3ccncc3OCCC3CCO3)c(Nc3cccc(Cl)c3Cl)c21 (single isomer, unassigned) [Example 63, 3-(2,3-dichloroanilino)-2-(3-{2-[oxetan-2-yl]ethoxy}pyridin-4-yl)-1,5,6,7-tetrahydro-4H-pyrrolo[3,2-c]pyridin-4-one]
IC50 [1, 4]: 31.4 nM | IC50 [2, 5]: 5510 nM | IC50 [3, 6]: 567 nM

O=C1NCCc2[nH]c(-c3ccncc3OCCC3CCO3)c(Nc3cccc(Cl)c3Cl)c21 (single isomer, unassigned) [Example 64, 3-(2,3-dichloroanilino)-2-(3-{2-[oxetan-2-yl]ethoxy}pyridin-4-yl)-1,5,6,7-tetrahydro-4H-pyrrolo[3,2-c]pyridin-4-one]
IC50 [1, 7]: 23 nM | IC50 [2, 8]: 5380 nM | IC50 [3, 9]: 726 nM

COc1c(Cl)cc(F)cc1Nc1c(-c2ccncc2OCC2CCO2)[nH]c2c1C(=O)NCC2 (single isomer, unassigned) [Example 66, 3-(3-chloro-5-fluoro-2-methoxyanilino)-2-(3-{[oxetan-2-yl]methoxy}pyridin-4-yl)-1,5,6,7-tetrahydro-4H-pyrrolo[3,2-c]pyridin-4-one]
IC50 [1, 7]: 140 nM | IC50 [2, 8]: > 20000 nM | IC50 [3, 9]: 1500 nM

CC1(C)COC1COc1cnccc1-c1[nH]c2c(c1Nc1cccc(Cl)c1OC(F)F)C(=O)NCC2 (single isomer, unassigned) [Example 72, 3-[3-chloro-2-(difluoromethoxy)anilino]-2-(3-{[3,3-dimethyloxetan-2-yl]methoxy}pyridin-4-yl)-1,5,6,7-tetrahydro-4H-pyrrolo[3,2-c]pyridin-4-one]
IC50 [1, 7]: 436 nM | IC50 [2, 8]: > 20000 nM | IC50 [3, 9]: 2740 nM

CC1(C)COC1COc1cnccc1-c1[nH]c2c(c1Nc1cccc(Cl)c1OC(F)F)C(=O)NCC2 (single isomer, unassigned) [Example 73, 3-[3-chloro-2-(difluoromethoxy)anilino]-2-(3-{[3,3-dimethyloxetan-2-yl]methoxy}pyridin-4-yl)-1,5,6,7-tetrahydro-4H-pyrrolo[3,2-c]pyridin-4-one]
IC50 [1, 7]: 92.3 nM | IC50 [2, 5]: > 20000 nM | IC50 [3, 6]: 1910 nM

CC1(COc2cnccc2-c2[nH]c3c(c2Nc2cccc(Cl)c2OC(F)F)C(=O)NCC3)CCO1 (single isomer, unassigned) [Example 76, 3-[3-chloro-2-(difluoromethoxy)anilino]-2-(3-{[2-methyloxetan-2-yl]methoxy}pyridin-4-yl)-1,5,6,7-tetrahydro-4H-pyrrolo[3,2-c]pyridin-4-one]
IC50 [1, 7]: 291 nM | IC50 [2, 5]: > 20000 nM | IC50 [3, 9]: 1880 nM
